# In PMC10616469, “Pharmacokinetics and tissue distribution of four major bioactive components of Cynanchum auriculatum extract: a UPLC–MS/MS study in normal and functional dyspepsia rats” (Frontiers in Pharmacology, 2023):
# Like-named read-outs stand apart in the source and are kept apart here.
# Tests used:
# [1] = Stability of the four compounds in tissue homogenate samples (QC samples); conditions: mean ± s, n = 5
# Protocol: (§1) Additionally, stomach and small intestinal tissues were diluted three times to obtain a tissue homogenate. Then, 300 μL of this tissue homogenate was mixed with 30 μL 1% formic acid-water, 20 μL IS, and 1.2 mL acetonitrile. The mixture was then vortexed for 5 min, sonicated for 10 min, and then stored at −20°C for 30 min. Subsequently, the mixture was centrifuged at 14,000 rpm for 10 min. The supernatant obtained was then transferred to another tube and evaporated to dryness at 37°C under nitrogen. The dried residue was reconstituted with 200 μL of the 50% methanol–water, and the centrifugation process was repeated. The obtained supernatant was then used for further analysis.
# The appropriate amount of the reference substance was accurately weighed and dissolved in an appropriate amount of methanol to obtain stock solutions. The concentrations of the resulting stock solution were 0.9996 mg/mL for baishouwu benzophenone, 0.9518 mg/mL for deacylmetaplexigenin, 1.3660 mg/mL for qingyangshengenin, and 0.9898 mg/mL for syringic acid. Accurate volumes of each stock solution were mixed to obtain working solution, which was then serially diluted with methanol to provide standard working solutions. Similarly, QC samples of three concentrations (low, medium, and high) were prepared. All solutions were stored at −20°C for later use.
# The following parameters of stability were assessed: short–term stability (24 h at room temperature), processed sample stability (24 h at 4°C), freeze–thaw stability (3 cycles), and auto–sampler stability (6 h at room temperature). QC samples of different concentrations were used for stability analysis.
# [2] = Stability of the four compounds in plasma samples (QC samples); conditions: n = 5
# Protocol: In a 1.5 mL EP tube, 100 μL of plasma sample was mixed with 10 µL 1% formic acid–water, 10 μL IS (0.2011 μg/mL), and 400 μL acetonitrile. The mixture was then vortexed for 5 min, followed by sonication for 10 min at 40 kHz and centrifugation at 14,000 rpm for 10 min. The supernatant obtained was transferred to another tube and evaporated to dryness under a nitrogen vacuum at 37°C. The residue obtained was reconstituted with 150 μL of the initial mobile phase, and the centrifugation process was repeated. The supernatant thus obtained was then used for further analysis.
# Similarly, QC samples of three concentrations (low, medium, and high) were prepared.
# The specificity of the method was evaluated by comparing the retention times of analytes and IS in the blank matrix, blank matrix spiked with the four analytes and IS, and the samples after oral administration of CA extract. Calibration curves were constructed by comparing the ratio of peak areas of the four analytes to that of IS versus the concentration of the four analytes. Calibration curves were fitted via linear weighted (1/X ^ 2 ) least–squares regression. The intra–and inter–day precision and accuracy were estimated by analyzing QC samples at different concentrations on the same day and three consecutive validation days, respectively. The extraction recovery was evaluated by determining the peak area of analytes in QC samples compared with that in extracted matrix samples. The relative standard deviation of the extraction recovery of analytes at each level was retained at ≤20.0%. The following parameters of stability were assessed: short–term stability (24 h at room temperature), processed sample stability (24 h at 4°C), freeze–thaw stability (3 cycles), and auto–sampler stability (6 h at room temperature). QC samples of different concentrations were used for stability analysis.
# [3] = PK study: plasma pharmacokinetics after oral administration of CA extract in normal and FD rats (UPLC-MS/MS); format: in vivo; conditions: Sprague-Dawley, rat, oral CA extract (0.10 g/mL solution, 10 mL/kg); for AUC(0-inf) / AUC(0-t) / CL/F / Cmax / half-life: n = 6; for Tmax: n = 6, read-out: Tmax; for Vd/F: n = 6, read-out: Vz/F
# Protocol: For PK experiments, an appropriate amount of the CA extract was weighed to prepare a 0.10 g/mL solution using physiological saline. Briefly, 12 SD rats were randomly assigned to normal and FD groups and were orally administered the prepared CA sample (10 mL/kg body weight). For assessment, 0.3 mL of blood was collected into heparinized tubes via the caudal vein before dosing and at 2, 5, 10, 15, 20, 30, and 45 min, and 1, 2, 4, 8, 12, 24, and 48 h after administration. Blood samples were then immediately centrifuged at 4,500 rpm for 15 min, and the obtained plasma samples were stored at −20°C until determination.
# The PK parameters were analyzed using the non–compartment analysis using the WinNonLin 8.2 software (Phoenix, United States). All the data were expressed as mean ± standard deviation (SD). The normal and FD groups were compared using independent samples t–test in SPSS 22.0. Results with p values < 0.05 were considered statistically significant.
# [4] = Tissue distribution study after oral administration of CA extract in normal and FD rats
# Protocol: UPLC–MS/MS analysis was conducted using the ACQUITY UPLC system (Waters Corp., Milford, MA, United States) equipped with a Xevo–TQ mass spectrometer (Waters Corp., Milford, MA, United States) with an electrospray ionization (ESI) interface and triple quadrupole mass analyzer.
# The ACQUITY UPLC® BEH C18 column (2.1 mm × 50 mm, 1.7 μm, Waters, United States) was used for separation and was maintained at 40°C. The mobile phase consisted of 0.1% formic acid in water (A) and 0.1% formic acid–acetonitrile (B) for PK study and 0.2% formic acid in water (A) and 0.2% formic acid–acetonitrile (B) for tissue distribution study. The mobile phase was eluted as a gradient, as follows: 0–0.5 min, 10% B; 0.5–3.0 min, 15% B; 3.0–3.2 min, 25% B; 3.2–4.0 min, 30% B; 4.0–4.5 min, 32% B; 4.5–6.0 min, 90% B; and 6.0 min, 10% B. The flow rate was set at 0.35 mL/min and the injection volume was 2 μL for the PK study and 1 μL for the tissue distribution study.
# The four active components of CA were quantified using multiple reaction monitoring under negative ion mode. The following m/z transitions were chosen for quantification: baishouwu benzophenone 301.00→283.00, deacylmetaplexigenin 379.15→361.20, qingyangshengenin 499.20→137.00, syringic acid 197.20→181.95, and puerarin (internal standard, IS) 415.10→267.05. The collision energy was 15, 15, 35, 15, and 35 V, respectively ([Sun et al., 2022]). ESI mode was operated under the following conditions: capillary voltage, 1 kV; desolvation gas (N2), 1000 L/h; collision gas (Ar2), 150 L/h; desolvation temperature, 400°C; and source temperature, 120°C.
# as §1
# SD rats were randomly divided into normal and FD groups (n = 30 each) and orally administered 10 mL/kg of CA extract solution. The rats were sacrificed at 10, 30 min, 1, 2, and 4 h after administration (6 rats per time point). Subsequently, their heart, liver, spleen, lung, kidney, brain, small intestine, and stomach were removed. The tissue samples were then washed in saline solution and wiped with filter paper. Subsequently, all tissues were stored at −80°C until analysis.
# [5] = Brain homogenate, highest QC (ng·mL^-1): Baishouwu benzophenone 131.10, Syringic acid 320.04, Qingyangshengenin 62.12, Deacylmetaplexigenin 677.19
# [6] = Brain homogenate, lowest QC (ng·mL^-1): Baishouwu benzophenone 3.34, Syringic acid 8.18, Qingyangshengenin 1.58, Deacylmetaplexigenin 17.26
# [7] = Brain homogenate, middle QC (ng·mL^-1): Baishouwu benzophenone 20.88, Syringic acid 51.14, Qingyangshengenin 9.90, Deacylmetaplexigenin 107.87
# [8] = Heart homogenate, highest QC (ng·mL^-1): Baishouwu benzophenone 111.56, Syringic acid 340.93, Qingyangshengenin 350.76, Deacylmetaplexigenin 1522.88
# [9] = Heart homogenate, lowest QC (ng·mL^-1): Baishouwu benzophenone 2.66, Syringic acid 8.11, Qingyangshengenin 8.35, Deacylmetaplexigenin 36.24
# [10] = Heart homogenate, middle QC (ng·mL^-1): Baishouwu benzophenone 18.96, Syringic acid 57.96, Qingyangshengenin 59.63, Deacylmetaplexigenin 258.89
# [11] = Kidney homogenate, highest QC (ng·mL^-1): Baishouwu benzophenone 768.40, Syringic acid 1230.44, Qingyangshengenin 844.98, Deacylmetaplexigenin 2249.71
# [12] = Kidney homogenate, lowest QC (ng·mL^-1): Baishouwu benzophenone 9.84, Syringic acid 15.75, Qingyangshengenin 10.82, Deacylmetaplexigenin 28.80
# [13] = Kidney homogenate, middle QC (ng·mL^-1): Baishouwu benzophenone 81.96, Syringic acid 131.25, Qingyangshengenin 90.13, Deacylmetaplexigenin 239.97
# [14] = Liver homogenate, highest QC (ng·mL^-1): Baishouwu benzophenone 313.75, Syringic acid 268.07, Qingyangshengenin 4484.13, Deacylmetaplexigenin 3093.35
# [15] = Liver homogenate, lowest QC (ng·mL^-1): Baishouwu benzophenone 1.77, Syringic acid 22.34, Qingyangshengenin 25.26, Deacylmetaplexigenin 16.38
# [16] = Lung homogenate, highest QC (ng·mL^-1): Baishouwu benzophenone 630.29, Syringic acid 662.80, Qingyangshengenin 385.86, Deacylmetaplexigenin 1513.71
# [17] = Lung homogenate, lowest QC (ng·mL^-1): Baishouwu benzophenone 17.66, Syringic acid 18.57, Qingyangshengenin 10.81, Deacylmetaplexigenin 42.42
# [18] = Lung homogenate, middle QC (ng·mL^-1): Baishouwu benzophenone 105.98, Syringic acid 111.44, Qingyangshengenin 64.88, Deacylmetaplexigenin 254.52
# [19] = Small intestine homogenate, highest QC (ng·mL^-1): Baishouwu benzophenone 39.22, Syringic acid 773.28, Qingyangshengenin 1726.39, Deacylmetaplexigenin 1206.41
# [20] = Small intestine homogenate, lowest QC (ng·mL^-1): Baishouwu benzophenone 0.46, Syringic acid 9.31, Qingyangshengenin 20.77, Deacylmetaplexigenin 14.52
# [21] = Small intestine homogenate, middle QC (ng·mL^-1): Baishouwu benzophenone 4.97, Syringic acid 97.95, Qingyangshengenin 218.68, Deacylmetaplexigenin 152.81
# [22] = Spleen homogenate, highest QC (ng·mL^-1): Baishouwu benzophenone 658.88, Syringic acid 752.66, Qingyangshengenin 418.52, Deacylmetaplexigenin 1979.74
# [23] = Spleen homogenate, lowest QC (ng·mL^-1): Baishouwu benzophenone 10.98, Syringic acid 12.54, Qingyangshengenin 6.98, Deacylmetaplexigenin 33.00
# [24] = Spleen homogenate, middle QC (ng·mL^-1): Baishouwu benzophenone 87.85, Syringic acid 100.35, Qingyangshengenin 55.80, Deacylmetaplexigenin 263.97
# [25] = Stomach homogenate, highest QC (ng·mL^-1): Baishouwu benzophenone 47.06, Syringic acid 257.76, Qingyangshengenin 1285.45, Deacylmetaplexigenin 1665.65
# [26] = Stomach homogenate, lowest QC (ng·mL^-1): Baishouwu benzophenone 0.63, Syringic acid 3.44, Qingyangshengenin 17.14, Deacylmetaplexigenin 22.21
# [27] = Stomach homogenate, middle QC (ng·mL^-1): Baishouwu benzophenone 6.28, Syringic acid 34.37, Qingyangshengenin 171.39, Deacylmetaplexigenin 222.09
# [28] = high QC (nominal 1666.00 / 3172.53 / 569.17 / 206.21 ng·mL^-1)
# [29] = low QC (nominal 52.06 / 49.57 / 8.89 / 1.61 ng·mL^-1)
# [30] = medium QC (nominal 208.25 / 396.57 / 71.13 / 25.78 ng·mL^-1)
smiles,measurement,setting,value
CC(=O)c1ccc(O)c(C(=O)c2c(O)ccc(O)c2C)c1O [Baishouwu benzophenone],Auto-sampler for 6 h Measured concentration,[1]; [5],120.63 ± 2.55 ng/mL
same,Three freeze-thaw cycles Measured concentration,[1]; [5],123.76 ± 3.01 ng/mL
same,Auto-sampler for 6 h Measured concentration,[1]; [6],3.08 ± 0.01 ng/mL
same,Three freeze-thaw cycles Measured concentration,[1]; [6],3.02 ± 0.04 ng/mL
same,Auto-sampler for 6 h Measured concentration,[1]; [7],19.76 ± 0.44 ng/mL
same,Three freeze-thaw cycles Measured concentration,[1]; [7],20.10 ± 0.34 ng/mL
same,Auto-sampler for 6 h Measured concentration,[1]; [8],117.44 ± 1.18 ng/mL
same,Three freeze-thaw cycles Measured concentration,[1]; [8],118.10 ± 1.89 ng/mL
same,Auto-sampler for 6 h Measured concentration,[1]; [9],2.59 ± 0.05 ng/mL
same,Three freeze-thaw cycles Measured concentration,[1]; [9],2.47 ± 0.03 ng/mL
same,Auto-sampler for 6 h Measured concentration,[1]; [10],19.82 ± 0.45 ng/mL
same,Three freeze-thaw cycles Measured concentration,[1]; [10],19.77 ± 0.41 ng/mL
same,Auto-sampler for 6 h Measured concentration,[1]; [11],750.99 ± 14.44 ng/mL
same,Three freeze-thaw cycles Measured concentration,[1]; [11],748.36 ± 12.9 ng/mL
same,Auto-sampler for 6 h Measured concentration,[1]; [12],9.74 ± 0.44 ng/mL
same,Three freeze-thaw cycles Measured concentration,[1]; [12],9.58 ± 0.63 ng/mL
same,Auto-sampler for 6 h Measured concentration,[1]; [13],88.88 ± 5.31 ng/mL
same,Three freeze-thaw cycles Measured concentration,[1]; [13],87.75 ± 5.24 ng/mL
same,Auto-sampler for 6 h Measured concentration,[1]; [14],305.22 ± 17.58 ng/mL
same,Three freeze-thaw cycles Measured concentration,[1]; [14],303.56 ± 16.64 ng/mL
same,Auto-sampler for 6 h Measured concentration,[1]; [15],1.80 ± 0.19 ng/mL
same,Three freeze-thaw cycles Measured concentration,[1]; [15],1.86 ± 0.05 ng/mL
same,Three freeze-thaw cycles Measured concentration,"[1]; Liver homogenate, middle QC (ng·mL^-1): Baishouwu benzophenone 27.19, Syringic acid 89.35, Qingyangshengenin 386.62, Deacylmetaplexigenin 268.09",26.80 ± 1.81 ng/mL
same,Auto-sampler for 6 h Measured concentration,[1]; [16],717.67 ± 14.53 ng/mL
same,Three freeze-thaw cycles Measured concentration,[1]; [16],716.31 ± 12.93 ng/mL
same,Auto-sampler for 6 h Measured concentration,[1]; [17],17.71 ± 1.84 ng/mL
same,Three freeze-thaw cycles Measured concentration,[1]; [17],17.55 ± 2.16 ng/mL
same,Auto-sampler for 6 h Measured concentration,[1]; [18],107.37 ± 5.82 ng/mL
same,Three freeze-thaw cycles Measured concentration,[1]; [18],105.63 ± 6.43 ng/mL
same,Auto-sampler for 6 h Measured concentration,[1]; [19],38.84 ± 3.48 ng/mL
same,Three freeze-thaw cycles Measured concentration,[1]; [19],38.30 ± 3.03 ng/mL
same,Auto-sampler for 6 h Measured concentration,[1]; [20],0.48 ± 0.05 ng/mL
same,Three freeze-thaw cycles Measured concentration,[1]; [20],0.46 ± 0.04 ng/mL
same,Auto-sampler for 6 h Measured concentration,[1]; [21],4.71 ± 0.14 ng/mL
same,Three freeze-thaw cycles Measured concentration,[1]; [21],4.66 ± 0.10 ng/mL
same,Auto-sampler for 6 h Measured concentration,[1]; [22],684.55 ± 31.57 ng/mL
same,Three freeze-thaw cycles Measured concentration,[1]; [22],677.57 ± 32.24 ng/mL
same,Auto-sampler for 6 h Measured concentration,[1]; [23],11.24 ± 0.63 ng/mL
same,Three freeze-thaw cycles Measured concentration,[1]; [23],11.40 ± 0.76 ng/mL
same,Auto-sampler for 6 h Measured concentration,[1]; [24],80.95 ± 2.54 ng/mL
same,Three freeze-thaw cycles Measured concentration,[1]; [24],79.35 ± 1.81 ng/mL
same,Auto-sampler for 6 h Measured concentration,[1]; [25],43.94 ± 1.72 ng/mL
same,Three freeze-thaw cycles Measured concentration,[1]; [25],44.41 ± 1.38 ng/mL
same,Auto-sampler for 6 h Measured concentration,[1]; [26],0.57 ± 0.05 ng/mL
same,Three freeze-thaw cycles Measured concentration,[1]; [26],0.58 ± 0.07 ng/mL
same,Auto-sampler for 6 h Measured concentration,[1]; [27],6.13 ± 0.11 ng/mL
same,Three freeze-thaw cycles Measured concentration,[1]; [27],6.22 ± 0.15 ng/mL
same,"Measured concentration, 4°C for 24 h",[2]; [28],1594.23 ± 107.31 ng/mL
same,"Measured concentration, Room temperature for 24 h",[2]; [28],1664.66 ± 169.47 ng/mL
same,"Measured concentration, Three freeze-thaw cycles",[2]; [28],1684.19 ± 146.38 ng/mL
same,"Measured concentration, 4°C for 24 h",[2]; [29],55.65 ± 4.01 ng/mL
same,"Measured concentration, Three freeze-thaw cycles",[2]; [29],56.07 ± 5.75 ng/mL
same,"Measured concentration, Room temperature for 24 h",[2]; low QC (nominal 52.06 / 49.57 / 8.89 / 1.61 ng·mL^-1 for baishouwu benzophenone / deacylmetaplexigenin / qingyangshengenin / syringic acid),55.67 ± 5.93 ng/mL
same,"Measured concentration, 4°C for 24 h",[2]; [30],221.19 ± 11.60 ng/mL
same,"Measured concentration, Room temperature for 24 h",[2]; [30],222.20 ± 17.55 ng/mL
same,"Measured concentration, Three freeze-thaw cycles",[2]; [30],221.08 ± 17.98 ng/mL
same,AUC(0-inf),[3]; FD group rats,11100 ng·h/mL
same,AUC(0-t),[3]; FD group rats,9820 ± 1300 ng·h/mL
same,CL/F,[3]; FD group rats,7.5 mL/min/kg
same,Cmax,[3]; FD group rats,5220 ± 440 ng/mL
same,half-life,[3]; FD group rats,11 ± 1.85 h
same,Tmax,[3]; FD group rats,0.31 ± 0.06 h
same,Vd/F,[3]; FD group rats,7.08 ± 1.07 L/kg
same,AUC(0-inf),[3]; Normal group rats,13800 ng·h/mL
same,AUC(0-t),[3]; Normal group rats,12800 ng·h/mL
same,CL/F,[3]; Normal group rats,6 mL/min/kg
same,Cmax,[3]; Normal group rats,6000 ± 592 ng/mL
same,half-life,[3]; Normal group rats,9.14 ± 2.41 h
same,Tmax,[3]; Normal group rats,0.26 ± 0.03 h
same,Vd/F,[3]; Normal group rats,4.67 ± 0.88 L/kg
same,tissue with the highest concentration,[4]; FD group,lungs
same,crossing of the blood-brain barrier,[4]; distribution found in rat brain,could cross the blood-brain barrier
same,time after oral administration at which almost completely metabolized in tissues,[4]; rat tissues,4 h
same,time of peak in most of organ tissues,[4]; rat tissues,0.17 to 0.5 h
